Counter-ions that a name gives are not always drawn. Like-named read-outs stand apart in the source and are kept apart here.
Tests used:
[1] = Toxicity test (LD50, Miller and Tainter); settings: mouse, in vivo, mice
Experimental: The compounds according to the invention were subjected to toxicity tests. It was tested in batches of 10 mice by oral, intraperitoneal and, in some cases, intravenous administration and was calculated in accordance with Miller and Tainter's method (Proc. Soc. exper. Biol. Med., 1944, 57, 261).

[2] = system: pentamethylene tetrazole-induced tonic spasms; test: Anti-pentamethylene tetrazole activity; type: in vivo, male mice of the Swiss strain; settings: Mus musculus, male Swiss mice
Experimental: This test is carried out on a group of 10 male mice of the Swiss strain. 15 minutes after the subcutaneous injection of 125 mg/kg of pentamethylene tetrazole, the mice have tonic spasms of which the outcome is fatal.
For the test, the compound is administered orally 60 minutes before the injection of pentamethylene tetrazole. The animals are observed for 2 hours after administration of the pentamethylene tetrazole. In some particular cases, the tests were confirmed by intraperitoneal administration. The results are expressed by the effective dose DE50 (Goodman et Col.--J. Pharmacol. 108, 1953).
As Japanese Pat. No. 148,340 has been cited in copending application Ser. No. 916,651, filed June 19, 1978, comparisons between compounds of this closest prior art and the compounds of the invention were undertaken in the form of a controlled study.
The major consideration surrounded the similarity in the compounds, particularly in the substitution at the R position. The study compared ten compounds of the invention, which differed from the Japanese prior art only in that the compounds of the invention are alkylated at the R position while the prior art compounds are all hydrogenated at that position.
The compounds were tested for anti-pentamethylene tetrazole activity, the test described on p.

Solubility = type: physicochemical
male Swiss mice = test: Rota-Rod test; type: in vivo; settings: falls off rod in less than 2 minutes
Experimental: This test is carried out on male Swiss mice. The mouse is placed on a 3 cm diameter wooden rod rotating at 5 revolutions per minute. The mice which succeed in remaining on the rod for at least 3 minutes in successive tests are selected and gathered into groups of 10 for the test of each dose. If the mouse falls off the rod in less than 2 minutes, the tested compound is considered to be effective. The results are expressed by the effective dose DE50 according to N. W. Dunham and T. S. Miva--J. amer. pharm. Ass., 1957, 46, 208.

[3] = ip, intraperitoneal, read-out: DL50 I.P.
[4] = intravenous, read-out: DL50 I.V.
[5] = ip, intraperitoneal, 125 mg/kg s.c. pentamethylene tetrazole, read-out: anti-pentamethylene tetrazole activity DE50 I.P.
[6] = oral, 60 min before 125 mg/kg s.c. pentamethylene tetrazole, read-out: anti-pentamethylene tetrazole activity DE50 P.O.

| Compound | LD50 [1, 3] | LD50 [1, 4] | LD50 ([1]; oral, read-out: DL50 oral) | ED50 [2, 5] | ED50 [2, 6] | solubility in dimethyl formamide (Solubility; in dimethyl formamide) | solubility in ethanol (Solubility; in ethanol at 95° GL) | solubility in water (in words) (Solubility; in water) | Rota Rod DE50 V.O. (male Swiss mice) | solubility (Solubility; in water) |
| --- | --- | --- | --- | --- | --- | --- | --- | --- | --- | --- |
| CN(CCO)CC(=O)N(C)c1ccc(Cl)cc1C(=O)c1ccccc1 [Example 14, N,N'-dimethyl-N'-(2'-hydroxyethyl)-(2-benzoyl-4-chloro)-glycinanilide] | 350 mg/kg | 55 mg/kg | 1200 mg/kg | 1.5 mg/kg | 1.7 mg/kg | 20% | 20% | insoluble | 66 |  |
| CN(C(=O)CN1CCOCC1)c1ccc(Cl)cc1C(=O)c1ccccc1 [Example 18, N-Methyl-2-morpholino-(2'-benzoyl-4'-chloro)-acetanilide hydrochloride] | 750 mg/kg | 103 mg/kg | 1700 mg/kg | 1.4 mg/kg | 3.3 mg/kg |  |  |  | 60 | 100 mg/mL |
| C=C(C)CNCC(=O)N(C)c1ccc(Cl)cc1C(=O)c1ccccc1 [Example 19, N-Methyl-N'-(2'-methylallyl)-(2-benzoyl-4-chloro)-glycinanilide hydrochloride] | 500 mg/kg | 60 mg/kg | 1500 mg/kg | 1.1 mg/kg | 1.7 mg/kg |  |  |  | 21 | 50 mg/mL |
